Data: patent US20240050522A1, “COMPOSITIONS AND METHODS FOR PREVENTING, ATTENUATING, AND TREATING MEDICAL CONDITIONS WITH sHDL NANOPARTICLES” (The Regents of the University of Michigan, priority 2020, published 2024)

Experiments:
endotoxemia rats = conditions: cited from earlier work
[1] = tested on: endotoxemia mice (5 mg/kg LPS); conditions: 100 mg/kg; cited from earlier work
[2] = phospholipid alone, not complexed with 22A; cited from earlier work
[3] = Diameter of 22A-phospholipid sHDL complexes by DLS; assay type: physicochemical; conditions: volume intensity average
Description: The quality of resulting sHDL complexes were analyzed by following analytical techniques. The purity of sHDL complexes were determined by gel permeation chromatography (GPC), with UV detection at 220 nm, using a Tosoh TSK gel G3000SWxl column (Tosoh Bioscience, King of Prussia, PA). The sHDL diameters were determined by dynamic light scattering (DLS), using a Zetasizer Nano ZSP (Malvern Instruments, Westborough, MA) and the volume intensity average values were reported. Transition temperature of sHDL complexes were analyzed by differential scanning calorimetry (DSC) using Nano DSC (TA Instruments, New Castle, DE).

[4] = tested on: NF-κB reporter, human TLR4 (HEK-Blue cells); assay: LPS-induced NF-κB expression in HEK-Blue cells (Example X); assay type: cell-based; conditions: 0.1 mg/ml, LPS 2 ng/ml, 18 h
Description: FIG. 29A-I: sHDL complexes inhibit LPS-induced NF-κB activation in a lipid component and concentration dependent. HEK-Blue system was used to analyze neutralization of the LPS-induced inflammatory response. HEK-Blue cells were co-stimulated with 0.01, 0.03, and 0.1 mg/ml sHDL and 2 ng/ml LPS and incubated for 18 h. The activation of NF-κB reporter was quantified by measuring absorption at 650 nm (A-H). sHDL at 0.03 mg/ml were treated in presence of 2 ng/ml LPS and the activation of NF-κB reporter was quantified by measuring absorption at 650 nm (I).
The HEK-Blue cell system (InvivoGen) was used to analyze neutralization of the LPS-induced inflammatory response. HEK-Blue cells stably express reporter-linked human TLR4, CD14, MD2, and a NF-κB and are designed for studying the stimulation of human TLR4. Briefly, HEK-Blue cells were cultured in Dulbecco's Modified Eagle's Medium (DMEM) containing 10% low endotoxin fetal bovine serum (FBS) and selective antibiotics according to the manufacturer's instructions (InvivoGen). Growth medium was discarded and cells were resuspended in HEK-Blue Detection medium. Cells were seeded at 25,000 cells per well. The cells were treated with sHDL at 0.01, 0.03, or 0.1 mg/ml and 2 ng/ml of LPS. […] The blue color was quantified by measuring absorption at 650 nm using a SpectraMax M3 plate reader (Molecular Devices, Sunnyvale, CA).

SARS-CoV = conditions: via reduced or relocated ACE-2 receptors; cited from earlier work

For apoA-I: apolipoprotein A-I, the “plasma TNF-α” value (endotoxemia rats; 10 mg/kg 2 h post-LPS injection (1 mg/kg LPS)) is listed as “reduce”, the survival rate (endotoxemia rats; 10 mg/kg, endotoxemia rats (5 mg/kg)) is listed as “increased” and the mortality [1] is listed as “significantly lowered”.
For `CCCCCCCC/C=C\CCCCCCCC(=O)O[C@H](COC(=O)CCCCCCCCCCCCCCC)COP(=O)([O-])OCC[N+](C)(C)C` [POPC, 1-palmitoyl-2-oleoyl-phosphatidylcholine], the Tm of phospholipid [2] is given as −3.3±0.5 °C.
In the case of `CCCCCCCCCCCCCC(=O)OC[C@H](COP(=O)([O-])OCC[N+](C)(C)C)OC(=O)CCCCCCCCCCCCC` [DMPC, 1,2-dimyristoyl-sn-glycero-3-phosphatidylcholine], the Tm of phospholipid [2] is listed as 24.5 °C.
In the case of “PVLDLFRELLNELLEALKQKLK (SEQ ID NO: 4) [22A peptide]”, the “Size (nm)” value [3] is reported as 4.49 nm, the “Size (nm)” value ([3]; listed as 22A PEPTIDE) is reported as 4.488 nm and the “activation of NF-kB” value [4] is reported as “suppressed”.
In the case of `CCCCCCCCCCCCCCCC(=O)OC[C@H](COP(=O)([O-])OCC[N+](C)(C)C)OC(=O)CCCCCCCCCCCCCCC` [DPPC, 1,2-dipalmitoyl-sn-glycero-3-phosphatidylcholine], the Tm of phospholipid [2] is given as 41.6 °C.
For methyl-β-cyclodextrin [MβCD], the SARS-CoV cell entry (SARS-CoV) is listed as “inhibited”.
In the case of `CCCCCCCCCCCCCCCCCC(=O)OC[C@H](COP(=O)([O-])OCC[N+](C)(C)C)OC(=O)CCCCCCCCCCCCCCCCC` [DSPC, 1,2-distearoyl-sn-glycero-3-phosphatidylcholine], the Tm of phospholipid [2] is listed as 54.5 °C.
